Laboratory results from US20050176091A1, “Process for producing kiss-1 peptide” (priority 2002, published 2005).
Where no end group is shown, it is not given here.

System: intracellular Ca ion concentration
Experiment: Biological activity assay: intracellular Ca ion concentration-increasing activity (method of Example 3 of WO 99/33976)
Assay type: cell-based
Conditions: compared with a sample purified from human placenta extract

KiSS-1 peptide: Human KiSS-1 peptide (SEQ ID NO: 1) obtained in Example 2 by S-cyanylation and ammonolysis of a fused protein expressed in E. coli (GTSLSPPPESSGSRQQPGLSAPHSRQIPAPQGAVLVQREKDLPNYNWNSFGLRF-NH2)
intracellular Ca ion concentration-increasing activity: equivalent to that of a sample purified from human placenta extract
